Reference: ChEMBL document CHEMBL3988181, “GlaxoSmithKline Published Kinase Inhibitor Set 2 Onchocerca lienalis Screening Data”

Assay: GSK PKIS2: Screen against O. lienalis microfilariae, single point, at 3.1uM to assess reduction in motility. Compounds were also tested for cytotoxicity against Rhesus Monkey LLCMK2 cells.
Assay type: functional, Onchocerca lienalis, LLC-MK2
Details: CELL_LINE LLCMK2; CELL_SUPPLIER ECACC; CONC 3.1 uM; ORGANISM_SUPPLIER Extracted from peri-umbilical skin obtained from naturally infected cattle in the UK; temperature 37 degree C

SMILES	MOTILITY REDUCTION/CYTOTOXICITY [%]
NCCS[As](SCCN)c1ccc(Nc2nc(N)nc(N)n2)cc1	100
Nc1cccc(-c2ccc3c(N)n[nH]c3c2)n1	0
C[C@@H]1CCCCN1c1cc(-c2ccc3c(N)n[nH]c3c2)nc(N)n1	13.4
Nc1nc(-c2ccc3c(N)n[nH]c3c2)cc(N2CCC[C@@H](C(=O)Nc3ccccc3)C2)n1	0
CNc1nc(-c2ccc3c(N)n[nH]c3c2)cc(N2C[C@@H](C(=O)Nc3ccccc3)CC[C@H]2C)n1	0
CC[C@@H]1CO[C@H](C(=O)Nc2ccccc2)CN1c1cc(-c2ccc3c(N)n[nH]c3c2)nc(NC)n1	0
CNc1nc(-c2ccc3c(N)n[nH]c3c2)cc(N2C[C@@H](C(=O)NC3CCCCC3)OC[C@H]2C)n1	0
Nc1nc(-c2ccc3c(N)n[nH]c3c2)cc(N2CCCC(NC(=O)c3ccccc3)C2)n1 (configuration not stated)	0
CNc1cc(-c2ccc3c(N)n[nH]c3c2)nc(N)n1	0
CN(C)c1cc(-c2ccc3c(N)n[nH]c3c2)nc(N)n1	0
CC(C)c1nc(-c2cccc(NS(=O)(=O)c3ccccc3)c2)c(-c2ccnc(Nc3ccc4c(c3)CN(C)CC4)n2)s1	86.7
CCc1nc(-c2cccc(N(C)S(=O)(=O)c3ccccc3)c2)c(-c2ccnc(Nc3ccc(N4CCN(C(C)=O)CC4)nc3)n2)s1	0
O=c1[nH]cc(-c2ccc(N3CCOCC3)cc2)c2sc(-c3cn[nH]c3)cc12	0
Nc1nc(-c2ccccn2)c(-c2ccnc3ccccc23)s1	0
OCCCNc1nccc(-c2c(-c3cccc(C(F)(F)F)c3)nn3cc(C(F)(F)F)ccc23)n1	0
O=c1cc(N2CCOCC2)nc2n(Cc3ccc(F)c(Cl)c3)ccn12	0
Cc1ccc(-c2cc(-c3c[nH]nc3-c3ccccn3)ccn2)cc1	0
Nc1nccc2scc(-c3ccc4c(c3)CCN4C(=O)Cc3ccccc3)c12	0
Nc1ncnc2occ(-c3ccc4c(c3)CCN4C(=O)Cc3cc(F)ccc3F)c12	16.7
Cn1cc(-c2ccc3c(c2)CCN3C(=O)Cc2cccc(F)c2)c2c(N)ncnc21	33.4
COc1cc2ncn(-c3cc(OCC4CCCO4)c(C(N)=O)s3)c2cc1OC (configuration not stated)	46.7
COC(=O)Nc1nc2ccc(Oc3ccc(NC(=O)Nc4cc(F)ccc4F)cc3)cc2[nH]1	40

SMILES	MOTILITY REDUCTION/CYTOTOXICITY [%]
c1ccc(Cn2ncc3cc(Nc4ncnc5ccccc45)ccc32)cc1	0
c1ccc(Cn2ccc3cc(Nc4ncnc5ccccc45)ccc32)cc1	33.4
c1ccc(Cn2cnc3cc(Nc4ncnc5ccccc45)ccc32)cc1	16.7
CS(=O)(=O)CCNCc1nc(-c2ccc3ncnc(Nc4ccc(OCc5cccc(F)c5)c(Cl)c4)c3c2)cs1	0
NCC(NCc1ccc(-c2ccnc3[nH]ccc23)s1)c1ccccc1 (configuration not stated)	0
NCC(NC(=O)c1cc(-c2cn[nH]c2)c(-c2ccnc3[nH]ccc23)s1)c1ccccc1 (configuration not stated)	0
CC(C)NCC(Cc1ccccc1)NC(=O)c1cc(Br)c(-c2ccnc3[nH]ccc23)s1 (configuration not stated)	66.7
CCNCC(Cc1ccccc1)NC(=O)c1cc(Br)c(-c2ccnc3[nH]ccc23)s1 (configuration not stated)	0
NCCNS(=O)(=O)c1ccc(-c2ccnc3[nH]ccc23)cc1	0
Fc1cccc(COc2ccc(Nc3ncnc4sc(-c5ccc[nH]5)cc34)cc2Cl)c1	100
COc1cc2ncn(-c3cc(OCc4ccncc4)c(C(N)=O)s3)c2cc1OC	0
CCCCc1nn2ncccc2c1-c1ccnc(NC2CC2)n1	0
CC(C)Oc1ccc2c(-c3ccnc(Nc4ccc(N5CCN(C)CC5)cc4)n3)cnn2n1	0
Cc1cccc(Nc2nc(NCCN)ncc2C(N)=O)c1	0
O=S(=O)(c1ccc(-c2ccnc3[nH]ccc23)cc1)N1CCCC1	0
COc1ccc(Nc2nccc(NCCNC(=O)Nc3ccccc3F)n2)cc1	0
Cc1ccn2nc(-c3ccc(F)cc3)c(-c3ccncc3)c2c1	0
Cc1ccc(NC(=O)Nc2ccc(Cl)cc2)cc1-c1ccc(C(=O)Nc2ccncc2)cc1	86.7
Cc1ccc(NC(=O)Nc2cccc(Cl)c2)cc1-c1ccc(C(=O)Nc2ccncc2)cc1	33.4
Cn1cncc1C(=O)NC1CCN(c2ccnc(Nc3ccc(F)cc3)n2)C1 (configuration not stated)	0
c1ccc(Oc2ccc(Nc3ccnc4cc(-c5ccc(CN6CCNCC6)o5)ccc34)cc2)nc1	0
Fc1ccccc1COc1ccc(Nc2ncnc3ccc(-c4nnc(C(F)(F)F)o4)cc23)cc1Cl	0

SMILES	MOTILITY REDUCTION/CYTOTOXICITY [%]
COc1cccc(NC(=O)NC2CCN(c3ccnc(Nc4ccc(F)cc4)n3)C2)c1 (configuration not stated)	13.4
COc1cccc(NC(=O)NCCNc2ccnc(Nc3ccc(F)cc3)n2)c1	33.4
Cc1ccc(NC(=O)c2ccc(Cl)cc2)cc1-c1ccc(C(=O)Nc2ccncc2)cc1	66.7
COc1cc2ncnc(Nc3ccc(OCc4ccccc4Br)c(Cl)c3)c2cc1OC.Cl	0
Cc1cc(NCC(c2ccccc2)c2ccccc2)nc(NCc2ccc(C(F)(F)F)cc2)n1	53.4
COc1ccc(NC(=O)Nc2ccc(C)c(-c3ccc(C(=O)Nc4ccncc4)cc3)c2)cc1	80
O=C(NCCCN1CCOCC1)c1cccc(Nc2nccc(Nc3ccc(Oc4ccccc4)cc3)n2)c1	13.4
c1ccc(-c2ccc3c(Nc4ccc5[nH]ccc5c4)ccnc3c2)nc1	33.4
N#Cc1cnc2cc(-c3cnc(CNCCN4CCOCC4)s3)ccc2c1Nc1ccc(Oc2ccccc2)cc1	16.7
CCS(=O)(=O)c1ccc(OC)c(Nc2nccc(-c3c(-c4cccc(NC(=O)c5c(F)cccc5F)c4)nn4ncccc34)n2)c1	33.4
COc1cc(Nc2nccc(N3CCC(NC(=O)c4cccc(C#N)c4)C3)n2)cc(OC)c1OC (configuration not stated)	0
COc1ccc(CNC(=O)NC2CCN(c3ccnc(Nc4cc(OC)c(OC)c(OC)c4)n3)C2)cc1 (configuration not stated)	0
COc1cccc(CNC(=O)NC2CCN(c3ccnc(Nc4cc(OC)c(OC)c(OC)c4)n3)C2)c1 (configuration not stated)	66.7
COc1cc2nccc(Nc3ccc(Oc4ccccc4)cc3)c2cc1OC	0
O=C(NCCNc1ccnc(Nc2ccc(F)cc2)n1)Nc1ccc2c(c1)OCO2	0
c1ccc(-c2ccc3c(Nc4ccc5[nH]ncc5c4)ccnc3c2)nc1	60
CC(=O)Nc1ccc(COc2ccc(Nc3ccnc4cc(-c5ccccn5)ccc34)cc2)cc1	100
CNC(=O)c1ccccc1Nc1nc(Nc2ccc(N3CCOCC3)cc2)ncc1Cl	80
O=c1[nH]ccc2nc(N[C@@H]3CCNC3)nc(Nc3cc(Cl)cc(Cl)c3)c12	100
O=S(=O)(c1cccc(F)c1)c1ccc(Nc2ncnc3cc(Br)sc23)cc1Cl	73.4
COc1cc(Nc2nccc(N3CCC(NC(=O)Nc4ccc5c(c4)OCO5)C3)n2)cc(OC)c1OC (configuration not stated)	0
Cn1ccc(-c2cccc(Nc3ccnc4cc(-c5nccs5)ccc34)c2)n1	0

SMILES	MOTILITY REDUCTION/CYTOTOXICITY [%]
NS(=O)(=O)c1cccc(N/C=C2\C(=O)Nc3ccc(S(=O)(=O)Cc4c(Cl)cccc4Cl)cc32)c1	33.4
Cc1cccc(-c2cc(Nc3ccncc3)c3ccccc3n2)n1	0
COc1ccc(S(=O)(=O)NC2CCN(c3cc(C)nc(Nc4cccc(C#N)c4)n3)CC2)cc1	0
O=C(Nc1cccc(-c2nn3ncccc3c2-c2ccnc(Nc3cccc(C(F)(F)F)c3)n2)c1)c1c(F)cccc1F	0
O=C(NCCNc1ccnc(Nc2ccc(F)cc2)n1)c1cc2ccccc2s1	66.7
NS(=O)(=O)c1cccc(-c2ccc3ncc(N4CCOCC4)nc3c2)c1	0
COc1ccc(CNC(=O)NC2CCN(c3ccnc(Nc4ccc(F)cc4)n3)CC2)cc1	33.4
COc1ccc(CNC(=O)NC2CCN(c3ccnc(Nc4ccc(F)cc4)n3)C2)cc1 (configuration not stated)	0
Oc1cccc(Nc2ccnc3cc(-c4ccncc4)ccc23)c1	0
Fc1cc(Cl)ccc1Nc1ccnc2cc(-c3ccc(CN4CCCCC4)o3)ccc12	16.7
Cc1n[nH]c2cc(Nc3ccnc(Nc4cccc(CN5CCOCC5)c4)n3)ccc12	0
O=C(Nc1ccccc1F)NC1CCN(c2ccnc(Nc3ccc(F)cc3)n2)CC1	53.4
COc1cccc(NC(=O)NC2CCN(c3ccnc(Nc4cc(OC)c(OC)c(OC)c4)n3)C2)c1 (configuration not stated)	86.7
COc1ccc(Nc2nccc(N3CCC(NC(=O)c4cc5ccccc5s4)C3)n2)cc1 (configuration not stated)	0
C[C@@H](Oc1cc(-n2cnc3ccc(NC(=O)NC(C)(C)C)cc32)sc1C(N)=O)c1ccccc1Cl	60
CC(=O)c1cccc(NC(=O)NC2CCN(c3ccnc(Nc4ccc(F)cc4)n3)C2)c1 (configuration not stated)	0
COC(=O)C(NC(=O)NC1CCN(c2ccnc(Nc3ccc(F)cc3)n2)C1)c1ccccc1 (configuration not stated)	0
COC(=O)c1cccc(NC(=O)NC2CCN(c3ccnc(Nc4ccc(OC)cc4)n3)C2)c1 (configuration not stated)	66.7
Cc1n[nH]c2ccc(-c3cc(OC[C@@H](N)Cc4ccccc4)cnc3-c3ccoc3)cc12	0
COC(=O)c1cccc(NC(=O)NC2CCN(c3ccnc(Nc4cc(OC)c(OC)c(OC)c4)n3)C2)c1 (configuration not stated)	66.7
Nc1ncnc2c1ncn2-c1ccc(Cl)cc1	60
